Results published in publication PMC10663540, “Structure-based discovery of dual pathway inhibitors for SARS-CoV-2 entry” (Nature Communications, 2023).
pIC50: −log10 of the molar value. Several values for one entry are separate records, joined by “and”; a condition that tells them apart may be missing. Equal entries are not always repeated. Where two headings read alike, the source gives them in different places.

How the values were obtained:
Calu-3 cells = conditions: rep1-rep3
human CTSB = molecular target: T1, human CTSB (Homo sapiens, UniProt P07858); assay: biochemical
T1 construct: […]; made in house

in vitro = conditions: human
TMPRSS2 = TMPRSS2 (Homo sapiens, UniProt O15393); assay: biochemical; format: biochemical
Sequence of TMPRSS2 (O15393 256-492): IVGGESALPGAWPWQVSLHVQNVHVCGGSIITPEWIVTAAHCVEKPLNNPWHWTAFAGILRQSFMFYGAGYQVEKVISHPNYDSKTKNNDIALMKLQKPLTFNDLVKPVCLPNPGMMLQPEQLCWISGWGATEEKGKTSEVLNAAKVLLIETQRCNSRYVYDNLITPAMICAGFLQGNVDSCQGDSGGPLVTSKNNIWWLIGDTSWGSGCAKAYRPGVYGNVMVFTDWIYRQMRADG
Sequence of TMPRSS2 (O15393 other isoform, or with tags, fused parts or gaps): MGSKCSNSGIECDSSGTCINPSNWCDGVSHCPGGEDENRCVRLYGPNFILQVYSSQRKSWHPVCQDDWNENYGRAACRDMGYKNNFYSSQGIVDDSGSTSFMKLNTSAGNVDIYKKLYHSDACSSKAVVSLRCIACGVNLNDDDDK

NC(N)=Nc1ccc(C(=O)OCCN2CCN(C(=O)N[C@@H](Cc3ccccc3)C(=O)N[C@H](/C=C/S(=O)(=O)c3ccccc3)CCc3ccccc3)CC2)cc1 [212-148]
Cytotoxicity (Calu-3 cells; 0.15 μM): 2.30% and 2.49% and 2.76% | Cytotoxicity (Calu-3 cells; 0.46 μM): 5.33% and 5.48% and 5.69% | Cytotoxicity (Calu-3 cells; 4.1 μM): -1.17% and -0.96% and -0.67% | Cytotoxicity (Calu-3 cells; 12.3 μM): 0.51% and 0.76% and 1.02% | Cytotoxicity (Calu-3 cells; 111.1 μM): -1.18% and -0.95% and -0.65% | Cytotoxicity (Calu-3 cells; 333.3 μM): 32.20% and 32.35% and 32.61% | Cytotoxicity (Calu-3 cells; 1000 μM): 84.78% and 84.85% and 84.92% | content remaining (LC-MS) (after two days in the medium that contains FBS, 125 μM): more than 50% | stability compared (in words) (same conditions as cell assay media): more stable than nafamostat | Inhibition: CTSB (human CTSB; 212-148 0.12207 nM, Fig. 5c): 8.76% and 9.57% and 12.06% | inhibition at 0.00012207 µM (human CTSB; 212-148 0.12207 nM, Fig. 5c): 9.32% | Inhibition: CTSB (human CTSB; 212-148 0.976562 nM, Fig. 5c): 5.21% and 6.50% and 2.50% and 12.34% | Inhibition: CTSB (human CTSB; 212-148 1.95312 nM, Fig. 5c): 10.95% and 10.99% and 12.44% | inhibition at 0.00195312 µM (human CTSB; 212-148 1.95312 nM, Fig. 5c): 20.7% | Inhibition: CTSB (human CTSB; 212-148 7.8125 nM, Fig. 5c): 6.62% and 15.92% and 9.45% and 14.93% | Inhibition: CTSB (human CTSB; 212-148 15.625 nM, Fig. 5c): 29.27% and 18.56% and 15.75% | inhibition at 0.015625 µM (human CTSB; 212-148 15.625 nM, Fig. 5c): 20.2% | Inhibition: CTSB (human CTSB; 212-148 31.25 nM, Fig. 5c): 38.89% and 26.87% and 33.63% | inhibition at 0.03125 µM (human CTSB; 212-148 31.25 nM, Fig. 5c): 31.5% | Inhibition: CTSB (human CTSB; 212-148 62.5 nM, Fig. 5c): 49.58% and 58.40% and 54.67% | inhibition at 0.0625 µM (human CTSB; 212-148 62.5 nM, Fig. 5c): 52.1% | Inhibition: CTSB (human CTSB; 212-148 125 nM, Fig. 5c): 77.49% and 76.59% and 75.86% | inhibition at 0.125 µM (human CTSB; 212-148 125 nM, Fig. 5c): 76.8% | Inhibition: CTSB (human CTSB; 212-148 250 nM, Fig. 5c): 92.13% and 95.19% and 101.10% | inhibition at 0.25 µM (human CTSB; 212-148 250 nM, Fig. 5c): 95.4% | Inhibition: CTSB (human CTSB; 212-148 500 nM, Fig. 5c): 95.97% and 101.09% and 103.70% | inhibition at 0.5 µM (human CTSB; 212-148 500 nM, Fig. 5c): 101% | Inhibition: CTSB (human CTSB; 212-148 1000 nM, Fig. 5c): 100.47% and 101.20% and 101.53% | inhibition at 1 µM (human CTSB; 212-148 1000 nM, Fig. 5c): 98.8% | Inhibition: CTSB (human CTSB; 212-148 2000 nM, Fig. 5c): 98.63% and 99.08% and 103.05% | inhibition at 2 µM (human CTSB; 212-148 2000 nM, Fig. 5c): 102% | pIC50 (human CTSB; substrate Cbz-Phe-Arg-AMC, pH 5.5, mean ± SD, four replicates): 7.19 | CC50 (in vitro): 347000 nM | pIC50 (TMPRSS2; 0.5 nM TMPRSS2, 10 μM substrate, mean ± SD, four replicates): 5.86 | Inhibition: TMPRSS2 (TMPRSS2; 212-148 15.2588 nM, Fig. 5b): 5.04% and 4.06% and 3.14% | inhibition at 0.0152588 µM (TMPRSS2; 212-148 15.2588 nM, Fig. 5b): 3.01% | Inhibition: TMPRSS2 (TMPRSS2; 212-148 30.5176 nM, Fig. 5b): 3.05% and 3.16% and 4.84% | inhibition at 0.0305176 µM (TMPRSS2; 212-148 30.5176 nM, Fig. 5b): 4.19% | Inhibition: TMPRSS2 (TMPRSS2; 212-148 61.0352 nM, Fig. 5b): 6.85% and 6.15% and 3.83% | inhibition at 0.0610352 µM (TMPRSS2; 212-148 61.0352 nM, Fig. 5b): 6.56% | Inhibition: TMPRSS2 (TMPRSS2; 212-148 122.07 nM, Fig. 5b): 7.87% and 8.22% and 8.32% | inhibition at 0.12207 µM (TMPRSS2; 212-148 122.07 nM, Fig. 5b): 8.2% | Inhibition: TMPRSS2 (TMPRSS2; 212-148 244.141 nM, Fig. 5b): 13.88% and 12.56% and 13.21% | inhibition at 0.244141 µM (TMPRSS2; 212-148 244.141 nM, Fig. 5b): 13.6% | Inhibition: TMPRSS2 (TMPRSS2; 212-148 488.281 nM, Fig. 5b): 22.52% and 22.28% and 23.91% | inhibition at 0.488281 µM (TMPRSS2; 212-148 488.281 nM, Fig. 5b): 23.3% | Inhibition: TMPRSS2 (TMPRSS2; 212-148 976.562 nM, Fig. 5b): 40.08% and 39.01% and 40.36% | inhibition at 0.976562 µM (TMPRSS2; 212-148 976.562 nM, Fig. 5b): 39.7% | Inhibition: TMPRSS2 (TMPRSS2; 212-148 1953.12 nM, Fig. 5b): 63.03% and 61.74% and 62.43% | inhibition at 1.95312 µM (TMPRSS2; 212-148 1953.12 nM, Fig. 5b): 61.1% | Inhibition: TMPRSS2 (TMPRSS2; 212-148 3906.25 nM, Fig. 5b): 83.44% and 83.94% and 85.49% | inhibition at 3.90625 µM (TMPRSS2; 212-148 3906.25 nM, Fig. 5b): 83.6% | Inhibition: TMPRSS2 (TMPRSS2; 212-148 7812.5 nM, Fig. 5b): 95.50% and 95.52% and 96.33% | inhibition at 7.8125 µM (TMPRSS2; 212-148 7812.5 nM, Fig. 5b): 94.8% | Inhibition: TMPRSS2 (TMPRSS2; 212-148 15625 nM, Fig. 5b): 98.35% and 96.17% and 99.57% | inhibition at 15.625 µM (TMPRSS2; 212-148 15625 nM, Fig. 5b): 97.8% | Inhibition: TMPRSS2 (TMPRSS2; 212-148 31250 nM, Fig. 5b): 98.24% and 98.70% and 100.24% | inhibition at 31.25 µM (TMPRSS2; 212-148 31250 nM, Fig. 5b): 97.8% | Inhibition: TMPRSS2 (TMPRSS2; 212-148 62500 nM, Fig. 5b): 98.19% and 99.09% and 100.93% | inhibition at 62.5 µM (TMPRSS2; 212-148 62500 nM, Fig. 5b): 98% | Inhibition: TMPRSS2 (TMPRSS2; 212-148 125000 nM, Fig. 5b): 98.93% and 99.03% and 99.02% | inhibition at 125 µM (TMPRSS2; 212-148 125000 nM, Fig. 5b): 98.3% | Inhibition: TMPRSS2 (TMPRSS2; 212-148 250000 nM, Fig. 5b): 99.15% and 99.14% and 99.60% | inhibition at 250 µM (TMPRSS2; 212-148 250000 nM, Fig. 5b): 98.1% | Inhibition: TMPRSS2 (TMPRSS2; 212-148 500000 nM, Fig. 5b): 100.68% and 99.05% and 100.75% | inhibition at 500 µM (TMPRSS2; 212-148 500000 nM, Fig. 5b): 100% | Inhibition: TMPRSS2 (TMPRSS2; 212-148 1000000 nM, Fig. 5b): 100.30% and 98.80% and 100.85% | inhibition at 1000 µM (TMPRSS2; 212-148 1000000 nM, Fig. 5b): 99.8% | Inhibition: TMPRSS2 (TMPRSS2; 212-148 2000000 nM, Fig. 5b): 100.85% and 100.05% and 100.27% | inhibition at 2000 µM (TMPRSS2; 212-148 2000000 nM, Fig. 5b): 99%
